Experimental data: patent publication US10981894B2, “Melanocortin subtype-2 receptor (MC2R) antagonists and uses thereof” (Crinetics Pharmaceuticals, Inc., priority 2018, dated 2021)

Molecular target: hMC2 receptor (Homo sapiens, UniProt Q01718)
Test: hMC2 membrane binding assay ([125I]ACTH (1-39) Tyr23, SPA)
Design: scale not given here
Settings: crude hMC2R membranes from CRE-bla-CHO-K1 cells expressing hMC2 receptor and hMRAP; [125I]ACTH (1-39) Tyr23 0.2 nM; 1.5 hours at room temperature; read-out: MC2R binding potency
Method in brief: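 Ki comes from non-linear regression of SPA scintillation counts. Displacement of 0.2 nM [125I]ACTH(1-39) Tyr23 by compound dose series (usually 0–10,000 nM final) ran 1.5 h at room temperature. Membranes came from CHO-K1 CRE-bla cells stably expressing hMC2R plus hMRAP, bead-coupled in pH 7.4 buffer with 0.2% BSA.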

Sequence of hMC2 receptor (Q01718 whole entry): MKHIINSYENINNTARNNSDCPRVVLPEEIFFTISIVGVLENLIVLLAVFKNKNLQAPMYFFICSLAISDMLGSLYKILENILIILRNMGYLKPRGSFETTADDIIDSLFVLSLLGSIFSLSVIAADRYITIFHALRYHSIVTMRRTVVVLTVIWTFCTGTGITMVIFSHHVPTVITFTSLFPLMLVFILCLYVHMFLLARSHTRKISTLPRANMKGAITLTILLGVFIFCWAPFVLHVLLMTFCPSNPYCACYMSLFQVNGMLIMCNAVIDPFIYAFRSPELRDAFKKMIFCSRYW
Sequence of hMC2 receptor (Q8TCY5 whole entry partner): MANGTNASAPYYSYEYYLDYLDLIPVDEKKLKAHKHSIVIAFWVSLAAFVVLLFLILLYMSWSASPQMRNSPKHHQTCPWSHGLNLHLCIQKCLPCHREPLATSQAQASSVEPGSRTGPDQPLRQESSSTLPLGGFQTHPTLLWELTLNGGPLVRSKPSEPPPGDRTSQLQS

Row | Ki [nM] | Structure (SMILES)
1 | < 10 | CCOc1ccccc1-c1ccc(N2CCN(C(=O)c3ccc(C(F)(F)F)cc3Cl)C[C@H]2CC)c(CNC[C@H](C)O)c1 [Compound 2-2, (2S)-1-[({4-[(2R)-4-[2-chloro-4-(trifluoromethyl)benzoyl]-2-ethylpiperazin-1-yl]-2′-ethoxy-[1,1′-biphenyl]-3-yl}methyl)amino]propan-2-ol]
2 | 10 to 100 | CC[C@@H]1CN(C(=O)c2ccc(Cl)cc2C(F)(F)F)CCN1c1ccc(-c2ccccc2OC)cc1CN [Compound 2-3, 1-{4-[(2R)-4-[4-chloro-2-(trifluoromethyl)benzoyl]-2-ethylpiperazin-1-yl]-2′-methoxy-[1,1′-biphenyl]-3-yl}methanamine]
3 | < 10 | CCOc1ncccc1-c1ccc(N2CCN(C(=O)c3ccc(Cl)cc3C(F)(F)F)C[C@H]2CC)c(CN)n1 [Compound 2-13, 1-{5-[(2R)-4-[4-chloro-2-(trifluoromethyl)benzoyl]-2-ethylpiperazin-1-yl]-2′-ethoxy-[2,3′-bipyridin]-6-yl}methanamine]
4 | < 10 | CCOc1ncccc1-c1ccc(N2CCN(C(=O)c3ccc(Cl)cc3C(F)(F)F)C[C@H]2CC)c(CNC)n1 [Compound 2-16, ({5-[(2R)-4-[4-chloro-2-(trifluoromethyl)benzoyl]-2-ethylpiperazin-1-yl]-2′-ethoxy-[2,3′-bipyridin]-6-yl}methyl)(methyl)amine]
5 | < 10 | CCOc1ncccc1-c1ccc(N2CCN(C(=O)c3ccc(F)cc3C(F)(F)F)C[C@H]2CC)c(CN)n1 [Compound 2-20, 1-{2′-ethoxy-5-[(2R)-2-ethyl-4-[4-fluoro-2-(trifluoromethyl)benzoyl]piperazin-1-yl]-[2,3′-bipyridin]-6-yl}methanamine]
6 | < 10 | CCOc1ncccc1-c1ccc(N2CCN(C(=O)c3ccc(F)cc3C(F)(F)F)C[C@H]2CC)c(CNCCNC)c1 [Compound 2-21, {[5-(2-ethoxypyridin-3-yl)-2-[(2R)-2-ethyl-4-[4-fluoro-2-(trifluoromethyl)benzoyl]piperazin-1-yl]phenyl]methyl}[2-(methylamino)ethyl]amine]
7 | < 10 | CCOc1ccc(C(=O)N2CCN(c3ccc(-c4cccnc4OCC)nc3CN)[C@H](CC)C2)c(C(F)(F)F)c1 [Compound 2-25, 1-{2′-ethoxy-5-[(2R)-4-[4-ethoxy-2-(trifluoromethyl)benzoyl]-2-ethylpiperazin-1-yl]-[2,3′-bipyridin]-6-yl}methanamine]
8 | < 10 | CCOc1ccc(C(=O)N2CCN(c3ccc(-c4cccnc4OCC)nc3CN)[C@H](CC)C2)c(C(F)(F)F)n1 [Compound 2-30]
9 | < 10 | CCOc1ncccc1-c1ccc(N2CCN(C(=O)c3ccc(OC)nc3C(F)(F)F)C[C@H]2CC)c(CN)n1 [Compound 2-31, 1-{2′-ethoxy-5-[(2R)-2-ethyl-4-[6-methoxy-2-(trifluoromethyl)pyridine-3-carbonyl]piperazin-1-yl]-[2,3′-bipyridin]-6-yl}methanamine]

Second part, the molecule before the results:

Row | Structure (SMILES) | Ki [nM]
10 | CCOc1ccccc1-c1ccc(N2CCN(C(=O)N3CCCC[C@H]3C(F)(F)F)C[C@H]2CC)c(C(=O)N[C@H]2CCN(C)C2)n1 [Compound 1-435, 6-(2-ethoxyphenyl)-3-[(2R)-2-ethyl-4-[(2S)-2-(trifluoromethyl)piperidine-1-carbonyl]piperazin-1-yl]-N-[(3S)-1-methylpyrrolidin-3-yl]pyridine-2-carboxamide] | < 10
11 | CCOc1ncccc1-c1ccc(N2CCN(C(=O)n3ccc4cccc(C(F)(F)F)c43)C[C@H]2CC)c(C(=O)N[C@@H]2CCN(C)C2)n1 [Compound 1-436, 2′-ethoxy-5-[(2R)-2-ethyl-4-[7-(trifluoromethyl)-1H-indole-1l-carbonyl]piperazin-1-yl]-N-[(3R)-1-methylpyrrolidin-3-yl]-[2,3′-bipyridine]-6-carboxamide] | < 10
12 | CCOc1ccccc1-c1ccc(N2CCN(C(=O)n3ccc4cccc(C(F)(F)F)c43)C[C@H]2CC)c(C(=O)N[C@@H]2CCN(C)C2)n1 [Compound 1-437, 6-(2-ethoxyphenyl)-3-[(2R)-2-ethyl-4-[7-(trifluoromethyl)-1H-indole-1l-carbonyl]piperazin-1-yl]-N-[(3R)-1-methylpyrrolidin-3-yl]pyridine-2-carboxamide] | < 10
13 | CCOc1ncccc1-c1ccc(N2CCN(C(=O)n3ccc4cc(F)cc(C#N)c43)C[C@H]2CC)c(C(=O)N[C@@H]2CCN(C)C2)n1 [Compound 1-438, 5-[(2R)-4-(7-cyano-5-fluoro-1H-indole-1-carbonyl)-2-ethylpiperazin-1-yl]-2′-ethoxy-N-[(3R)-1-methylpyrrolidin-3-yl]-[2,3′-bipyridine]-6-carboxamide] | < 10
14 | CCOc1ccccc1-c1ccc(N2CCN(C(=O)n3ccc4cc(F)cc(C#N)c43)C[C@H]2CC)c(C(=O)N[C@@H]2CCN(C)C2)n1 [Compound 1-439, 3-[(2R)-4-(7-cyano-5-fluoro-1H-indole-1l-carbonyl)-2-ethylpiperazin-1-yl]-6-(2-ethoxyphenyl)-N-[(3R)-1-methylpyrrolidin-3-yl]pyridine-2-carboxamide] | < 10
